Test results from publication PMC8611796, “Defining natural factors that stimulate and inhibit cellulose:xyloglucan hetero‐transglucosylation” (The Plant Journal, 2021).

How the values were obtained:
Format in all cases: biochemical
[1] = target: T1, EfHTG (Equisetum fluviatile hetero-trans-beta-glucanase) (Equisetum fluviatile, UniProt A0A0K2WA62); experiment: radiochemical CXE assay, [3H]XXXGol incorporation; settings: read-out: % inhibition at 0.3 mM
T1 construct: gene HTG; secreted by Pichia pastoris SMD1168H; culture filtrate used; made as in Simmons et al. 2015
T1 sequence (A0A0K2WA62 22-280): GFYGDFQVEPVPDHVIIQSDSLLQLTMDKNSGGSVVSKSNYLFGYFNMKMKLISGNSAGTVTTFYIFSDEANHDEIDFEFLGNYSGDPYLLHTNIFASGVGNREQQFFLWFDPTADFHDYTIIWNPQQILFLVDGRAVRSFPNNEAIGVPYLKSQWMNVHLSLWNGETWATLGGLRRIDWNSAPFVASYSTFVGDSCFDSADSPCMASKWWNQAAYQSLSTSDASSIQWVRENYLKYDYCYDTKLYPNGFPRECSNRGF

[2] = target: T1, EfHTG (Equisetum fluviatile hetero-trans-beta-glucanase); experiment: radiochemical transglucosylase assay (XET, MXE, CXE); settings: acceptor substrate; labelled compound; xyloglucan, MLG or cellulose donor; pH 5.5
[3] = target: T1, EfHTG (Equisetum fluviatile hetero-trans-beta-glucanase); experiment: radiochemical CXE and MXE assay, [3H]XXXGol incorporation; settings: cellulose or MLG donor, succinate pH 5.5, 20 C, 24 h

| Structure (SMILES) | % inhibition ([3]; [3H]XXXGol acceptor) | also measured |
| --- | --- | --- |
| CCCCN1C[C@H](O)[C@@H](O)[C@H](O)[C@H]1CO [N-butyldeoxynojirimycin] |  | inhibition at 300 µM [1]: ~50% |
| OC[C@@H](O)[C@@H](O[C@@H]1O[C@H](CO[C@H]2OC[C@@H](O)[C@H](O)[C@H]2O)[C@@H](O[C@@H]2O[C@H](CO[C@H]3OC[C@@H](O)[C@H](O)[C@H]3O)[C@@H](O[C@@H]3O[C@H](CO[C@H]4OC[C@@H](O)[C@H](O)[C@H]4O)[C@@H](O)[C@H](O)[C@H]3O)[C@H](O)[C@H]2O)[C@H](O)[C@H]1O)[C@H](O)[C@@H](O)CO [[3H]XXXGol] |  | radiochemical transglucosylase assay (XET, MXE, CXE) [2]: albeit at lower rates than onto the oligosaccharide [^3H]XXXGol |
| OC[C@H]1O[C@@H](O[C@H]2[C@H](O)[C@@H](O)C(O)O[C@@H]2CO)[C@H](O)[C@@H](O)[C@@H]1O (stereo partly shown) [cellobiose] |  | % inhibition ([3]; 0.01-80 mM inhibitor, [3H]XXXGol or [3H]XyG acceptor): Cellobiose inhibited EfHTG’s CXE activity equally whether [^3H]XXXGol or polymeric [^3H]XyG was the acceptor |
| OC[C@H]1O[C@@H](O[C@H]2[C@H](O)[C@@H](O)[C@H](O[C@H]3[C@H](O)[C@@H](O)[C@H](O[C@H]4[C@H](O)[C@@H](O)[C@H](O[C@H]5[C@H](O)[C@@H](O)[C@H](O[C@H]6[C@H](O)[C@@H](O)C(O)O[C@@H]6CO)O[C@@H]5CO)O[C@@H]4CO)O[C@@H]3CO)O[C@@H]2CO)[C@H](O)[C@@H](O)[C@@H]1O (stereo partly shown) [cellohexaose] | We found that cello‐oligosaccharides (C2–C6) are efficient inhibitors of Equisetum HTG |  |
| OC[C@H]1O[C@@H](O[C@H]2[C@H](O)[C@@H](O)[C@H](O[C@H]3[C@H](O)[C@@H](O)[C@H](O[C@H]4[C@H](O)[C@@H](O)[C@H](O[C@H]5[C@H](O)[C@@H](O)C(O)O[C@@H]5CO)O[C@@H]4CO)O[C@@H]3CO)O[C@@H]2CO)[C@H](O)[C@@H](O)[C@@H]1O (stereo partly shown) [cellopentaose] | We found that cello‐oligosaccharides (C2–C6) are efficient inhibitors of Equisetum HTG |  |
| OC[C@H]1O[C@@H](O[C@H]2[C@H](O)[C@@H](O)[C@H](O[C@H]3[C@H](O)[C@@H](O)[C@H](O[C@H]4[C@H](O)[C@@H](O)C(O)O[C@@H]4CO)O[C@@H]3CO)O[C@@H]2CO)[C@H](O)[C@@H](O)[C@@H]1O (stereo partly shown) [cellotetraose] | We found that cello‐oligosaccharides (C2–C6) are efficient inhibitors of Equisetum HTG |  |
| OC[C@H]1O[C@@H](O[C@H]2[C@H](O)[C@@H](O)[C@H](O[C@H]3[C@H](O)[C@@H](O)C(O)O[C@@H]3CO)O[C@@H]2CO)[C@H](O)[C@@H](O)[C@@H]1O (stereo partly shown) [cellotriose] | We found that cello‐oligosaccharides (C2–C6) are efficient inhibitors of Equisetum HTG |  |
